According to ChEMBL document CHEMBL1201862, “PubChem BioAssay data set” (2004):
Calls of active or inactive are those of the source.

Experiments:
[1] = target: T1, SUMO-activating enzyme (Homo sapiens, UniProt Q9UBT2); assay: SUMOylation inhibitor hit validation, confirmation, SUMOylation inhibitor project, biochemical, AlphaScreen (AID 2018); type: functional
[2] = target: T1, SUMO-activating enzyme; assay: inhibitors of in vitro SUMOylation cascade, primary screen, biochemical, HTRF, uHTS (AID 2006); type: protein-complex assay
[3] = target: SUMO E1/E2 (Homo sapiens, UniProt P63279+Q9UBE0+Q9UBT2); assay: SAR analysis of SUMOylation using HTRF in an in-Vitro dose response assay. [Related pubchem assays (depositor defined):AID2006, AID2011, AID2018, AID2069, AID2658]; type: functional
[4] = system: Vero; assay: Vero cell cytotoxicity, cytotoxicity control for flavivirus capping enzyme inhibitors (AID 588742); type: functional; settings: Chlorocebus sabaeus
[5] = target: T2, Protein RecA (Mycobacterium tuberculosis, UniProt P9WHJ3); assay: Fluorescence Cell-Free Homogeneous Dose Retest to Identify Inhibitors of RecA-Intein Splicing Activity. [Related pubchem assays (depositor defined):AID2097, AID2223, AID489010, AID492950]; type: functional
T2 sequence (P9WHJ3 whole entry): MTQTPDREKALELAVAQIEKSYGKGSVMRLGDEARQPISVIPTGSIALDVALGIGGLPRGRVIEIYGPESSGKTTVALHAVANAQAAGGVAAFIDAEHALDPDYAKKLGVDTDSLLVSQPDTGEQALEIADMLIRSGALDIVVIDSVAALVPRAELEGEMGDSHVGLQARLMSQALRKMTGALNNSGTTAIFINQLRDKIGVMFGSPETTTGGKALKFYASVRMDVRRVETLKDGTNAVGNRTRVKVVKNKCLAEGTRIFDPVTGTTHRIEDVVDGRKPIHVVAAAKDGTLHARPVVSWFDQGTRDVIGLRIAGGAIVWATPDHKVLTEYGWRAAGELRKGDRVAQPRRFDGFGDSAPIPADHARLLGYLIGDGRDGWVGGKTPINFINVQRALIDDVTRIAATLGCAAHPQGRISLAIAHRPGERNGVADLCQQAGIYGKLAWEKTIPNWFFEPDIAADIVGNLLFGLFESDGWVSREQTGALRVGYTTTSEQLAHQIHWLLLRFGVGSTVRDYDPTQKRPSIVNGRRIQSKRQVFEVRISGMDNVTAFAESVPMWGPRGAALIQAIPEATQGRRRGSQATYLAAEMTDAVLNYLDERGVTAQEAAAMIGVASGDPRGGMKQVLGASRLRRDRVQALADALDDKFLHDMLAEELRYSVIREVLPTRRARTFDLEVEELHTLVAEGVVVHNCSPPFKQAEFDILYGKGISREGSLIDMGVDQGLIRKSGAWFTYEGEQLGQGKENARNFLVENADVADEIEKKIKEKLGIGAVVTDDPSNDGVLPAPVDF

[6] = target: Genome polyprotein (dengue virus type 2, UniProt P29990); assay: Dengue-2 NS5 methyltransferase inhibitors, primary screen, biochemical, confirmation dose response (AID 588689); type: functional
[7] = target: T3, Histone-lysine N-methyltransferase NSD2 (Homo sapiens, UniProt O96028); type: biochemical
T3 sequence (O96028 whole entry): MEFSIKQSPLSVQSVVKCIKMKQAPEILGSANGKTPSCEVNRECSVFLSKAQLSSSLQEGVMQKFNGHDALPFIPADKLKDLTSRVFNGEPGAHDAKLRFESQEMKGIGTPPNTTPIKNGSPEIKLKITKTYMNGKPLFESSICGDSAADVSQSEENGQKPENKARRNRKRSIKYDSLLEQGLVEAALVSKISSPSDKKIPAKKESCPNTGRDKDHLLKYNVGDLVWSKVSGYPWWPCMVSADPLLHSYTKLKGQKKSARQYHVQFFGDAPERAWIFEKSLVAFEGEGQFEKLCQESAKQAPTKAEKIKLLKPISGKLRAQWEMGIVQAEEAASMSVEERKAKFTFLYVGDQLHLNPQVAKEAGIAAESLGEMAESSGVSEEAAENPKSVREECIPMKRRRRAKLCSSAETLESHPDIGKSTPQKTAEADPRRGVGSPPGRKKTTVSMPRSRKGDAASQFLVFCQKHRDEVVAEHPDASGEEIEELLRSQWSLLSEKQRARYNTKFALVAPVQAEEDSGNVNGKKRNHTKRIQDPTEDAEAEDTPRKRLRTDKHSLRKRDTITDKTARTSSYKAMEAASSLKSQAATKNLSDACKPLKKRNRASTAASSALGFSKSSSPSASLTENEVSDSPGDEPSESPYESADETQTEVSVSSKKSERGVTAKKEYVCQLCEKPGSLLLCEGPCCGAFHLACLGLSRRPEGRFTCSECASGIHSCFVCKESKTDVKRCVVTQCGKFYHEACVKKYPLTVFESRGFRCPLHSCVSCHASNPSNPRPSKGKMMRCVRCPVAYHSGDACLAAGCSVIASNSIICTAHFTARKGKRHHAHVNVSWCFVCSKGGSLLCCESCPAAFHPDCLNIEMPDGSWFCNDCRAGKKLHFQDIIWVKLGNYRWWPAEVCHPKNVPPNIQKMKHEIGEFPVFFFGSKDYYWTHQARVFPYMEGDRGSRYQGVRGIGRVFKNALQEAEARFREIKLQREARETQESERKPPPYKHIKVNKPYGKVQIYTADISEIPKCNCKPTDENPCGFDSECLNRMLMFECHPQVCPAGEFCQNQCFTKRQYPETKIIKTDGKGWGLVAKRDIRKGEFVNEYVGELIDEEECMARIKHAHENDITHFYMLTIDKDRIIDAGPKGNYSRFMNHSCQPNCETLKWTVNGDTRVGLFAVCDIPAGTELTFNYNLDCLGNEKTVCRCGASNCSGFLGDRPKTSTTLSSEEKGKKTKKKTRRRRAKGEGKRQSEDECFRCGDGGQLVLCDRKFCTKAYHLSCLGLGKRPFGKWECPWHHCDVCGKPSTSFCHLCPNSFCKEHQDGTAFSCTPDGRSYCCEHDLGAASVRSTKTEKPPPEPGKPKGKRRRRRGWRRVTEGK

[8] = target: Glucose-6-phosphate 1-dehydrogenase (Homo sapiens, UniProt P11413); assay: human G6PD enzyme inhibitors, dose response, selectivity assay for P. falciparum G6PD inhibitor project, biochemical, fluorescence (AID 504792); type: functional
[9] = target: Nonstructural protein 1 (Influenza A virus, UniProt Q194T2); type: functional, Influenza A virus (A/California/07/2009(H1N1))
[10] = target: T4, Polyadenylate-binding protein 1 (Homo sapiens, UniProt P11940); assay: PABP1 MLLE–PAM2 interaction inhibitors, dose response, miRNA deadenylation inhibitor project, biochemical, fluorescence polarization, Cy5-PAM2 peptide, secondary (AID 602260); type: functional; settings: read-out: IC50_Mean
[11] = target: T4, Polyadenylate-binding protein 1; assay: PABP1 MLLE–PAM2 binding inhibitor potency, dose response, biochemical, fluorescence polarization, FITC-PAM2 peptide (AID 602259); type: functional; settings: read-out: IC50_Mean
[12] = target: T5, Sentrin-specific protease 8 (Homo sapiens, UniProt Q96LD8); type: functional
T5 sequence (Q96LD8 whole entry): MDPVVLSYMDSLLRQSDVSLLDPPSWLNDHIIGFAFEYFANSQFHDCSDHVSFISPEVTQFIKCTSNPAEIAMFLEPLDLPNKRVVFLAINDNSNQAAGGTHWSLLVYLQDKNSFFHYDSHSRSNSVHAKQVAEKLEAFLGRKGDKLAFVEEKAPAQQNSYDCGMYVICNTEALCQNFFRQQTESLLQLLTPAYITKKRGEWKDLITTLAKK

[13] = target: T5, Sentrin-specific protease 8; type: functional; remark: listed apart in the source
[14] = target: Phospholipase D1 (Homo sapiens, UniProt Q13393); assay: PLD1 inhibitor potency in cells, dose response (AID 602151); type: functional;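 also: cellular PLD1 assay in Calu-1 cells stimulated with PMA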
[15] = target: Phospholipase D2 (Homo sapiens, UniProt O14939); assay: PLD2 inhibitor potency in cells, dose response (AID 602147); type: functional;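 also: cellular assay in HEK293 cells overexpressing GFP-tagged PLD2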
Sequence of Phospholipase D2 (O14939 whole entry): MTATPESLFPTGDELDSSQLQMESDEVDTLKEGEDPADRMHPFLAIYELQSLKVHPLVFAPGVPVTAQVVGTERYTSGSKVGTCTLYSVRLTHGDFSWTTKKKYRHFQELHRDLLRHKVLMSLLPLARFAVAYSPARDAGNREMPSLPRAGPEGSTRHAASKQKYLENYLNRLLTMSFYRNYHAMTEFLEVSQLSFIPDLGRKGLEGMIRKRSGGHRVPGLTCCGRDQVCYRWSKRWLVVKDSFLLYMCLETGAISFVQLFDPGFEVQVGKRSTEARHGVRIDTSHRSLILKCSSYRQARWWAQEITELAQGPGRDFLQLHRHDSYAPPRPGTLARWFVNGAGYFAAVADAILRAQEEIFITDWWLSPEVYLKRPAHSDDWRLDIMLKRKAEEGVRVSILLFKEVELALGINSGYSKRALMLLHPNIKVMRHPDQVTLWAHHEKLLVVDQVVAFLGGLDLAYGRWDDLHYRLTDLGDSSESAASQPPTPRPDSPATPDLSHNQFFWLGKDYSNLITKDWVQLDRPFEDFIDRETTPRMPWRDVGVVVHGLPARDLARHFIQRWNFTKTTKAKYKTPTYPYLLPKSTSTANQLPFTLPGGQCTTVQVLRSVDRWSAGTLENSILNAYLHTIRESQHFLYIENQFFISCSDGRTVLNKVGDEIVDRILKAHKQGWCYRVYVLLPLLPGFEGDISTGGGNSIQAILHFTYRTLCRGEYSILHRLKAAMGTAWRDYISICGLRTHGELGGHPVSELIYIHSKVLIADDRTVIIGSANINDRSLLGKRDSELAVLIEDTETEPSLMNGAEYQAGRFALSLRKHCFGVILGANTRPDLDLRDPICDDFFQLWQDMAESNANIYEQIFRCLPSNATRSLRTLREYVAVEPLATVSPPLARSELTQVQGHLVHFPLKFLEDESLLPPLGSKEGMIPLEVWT

T1 sequence (Q9UBE0 whole entry): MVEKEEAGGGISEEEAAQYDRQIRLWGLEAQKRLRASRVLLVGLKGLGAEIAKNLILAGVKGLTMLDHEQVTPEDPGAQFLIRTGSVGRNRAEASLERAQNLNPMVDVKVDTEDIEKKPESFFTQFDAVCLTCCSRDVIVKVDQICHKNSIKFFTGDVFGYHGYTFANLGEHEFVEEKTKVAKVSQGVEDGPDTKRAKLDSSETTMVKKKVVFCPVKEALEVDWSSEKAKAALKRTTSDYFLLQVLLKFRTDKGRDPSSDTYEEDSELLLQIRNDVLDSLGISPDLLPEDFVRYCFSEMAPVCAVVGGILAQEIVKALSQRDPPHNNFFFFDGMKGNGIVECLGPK
T1 sequence (Q9UBT2 whole entry): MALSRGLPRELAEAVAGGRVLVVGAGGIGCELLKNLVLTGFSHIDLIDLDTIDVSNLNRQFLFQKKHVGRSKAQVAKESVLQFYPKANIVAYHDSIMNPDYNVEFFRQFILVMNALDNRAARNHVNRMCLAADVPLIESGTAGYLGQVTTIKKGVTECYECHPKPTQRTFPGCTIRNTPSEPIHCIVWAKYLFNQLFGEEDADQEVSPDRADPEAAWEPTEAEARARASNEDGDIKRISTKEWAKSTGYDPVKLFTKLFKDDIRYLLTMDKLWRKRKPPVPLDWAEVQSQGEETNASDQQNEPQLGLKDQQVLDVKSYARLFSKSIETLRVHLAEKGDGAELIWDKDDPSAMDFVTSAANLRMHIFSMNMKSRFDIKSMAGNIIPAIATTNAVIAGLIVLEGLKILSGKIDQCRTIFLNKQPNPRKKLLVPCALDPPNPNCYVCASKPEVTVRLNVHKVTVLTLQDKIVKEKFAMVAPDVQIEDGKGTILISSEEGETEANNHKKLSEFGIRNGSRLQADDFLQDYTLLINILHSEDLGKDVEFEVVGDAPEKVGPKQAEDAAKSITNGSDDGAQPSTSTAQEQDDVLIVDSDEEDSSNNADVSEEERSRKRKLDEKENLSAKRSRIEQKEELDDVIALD
Sequence of Phospholipase D1 (Q13393 whole entry): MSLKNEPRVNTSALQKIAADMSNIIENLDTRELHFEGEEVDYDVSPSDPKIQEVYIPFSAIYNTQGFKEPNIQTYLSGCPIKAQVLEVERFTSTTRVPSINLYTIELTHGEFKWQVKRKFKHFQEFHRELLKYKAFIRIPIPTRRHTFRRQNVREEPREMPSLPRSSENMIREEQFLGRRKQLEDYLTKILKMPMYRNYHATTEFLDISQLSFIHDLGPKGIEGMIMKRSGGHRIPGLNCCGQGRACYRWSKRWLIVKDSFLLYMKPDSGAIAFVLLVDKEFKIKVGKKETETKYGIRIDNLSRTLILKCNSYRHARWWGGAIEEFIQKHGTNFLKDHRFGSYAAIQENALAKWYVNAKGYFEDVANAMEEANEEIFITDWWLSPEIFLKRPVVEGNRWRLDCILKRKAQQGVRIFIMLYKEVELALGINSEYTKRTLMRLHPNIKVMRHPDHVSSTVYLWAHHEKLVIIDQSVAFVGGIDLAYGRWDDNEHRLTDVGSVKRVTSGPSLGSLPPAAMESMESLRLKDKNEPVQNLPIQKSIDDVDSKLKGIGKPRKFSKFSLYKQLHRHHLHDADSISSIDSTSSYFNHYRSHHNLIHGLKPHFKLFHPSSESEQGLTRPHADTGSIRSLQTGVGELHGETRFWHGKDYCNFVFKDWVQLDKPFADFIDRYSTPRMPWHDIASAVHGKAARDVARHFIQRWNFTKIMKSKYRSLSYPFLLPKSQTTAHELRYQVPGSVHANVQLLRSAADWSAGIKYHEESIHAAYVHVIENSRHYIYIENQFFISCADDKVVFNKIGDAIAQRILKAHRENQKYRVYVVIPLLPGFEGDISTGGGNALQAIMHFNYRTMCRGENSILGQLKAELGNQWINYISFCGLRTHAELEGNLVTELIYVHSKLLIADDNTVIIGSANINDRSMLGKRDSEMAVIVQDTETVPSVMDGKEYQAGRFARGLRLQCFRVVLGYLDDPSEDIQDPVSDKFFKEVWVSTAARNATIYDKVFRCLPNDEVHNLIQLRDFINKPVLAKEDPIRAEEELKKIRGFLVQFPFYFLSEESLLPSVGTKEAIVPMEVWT
T4 sequence (P11940 whole entry): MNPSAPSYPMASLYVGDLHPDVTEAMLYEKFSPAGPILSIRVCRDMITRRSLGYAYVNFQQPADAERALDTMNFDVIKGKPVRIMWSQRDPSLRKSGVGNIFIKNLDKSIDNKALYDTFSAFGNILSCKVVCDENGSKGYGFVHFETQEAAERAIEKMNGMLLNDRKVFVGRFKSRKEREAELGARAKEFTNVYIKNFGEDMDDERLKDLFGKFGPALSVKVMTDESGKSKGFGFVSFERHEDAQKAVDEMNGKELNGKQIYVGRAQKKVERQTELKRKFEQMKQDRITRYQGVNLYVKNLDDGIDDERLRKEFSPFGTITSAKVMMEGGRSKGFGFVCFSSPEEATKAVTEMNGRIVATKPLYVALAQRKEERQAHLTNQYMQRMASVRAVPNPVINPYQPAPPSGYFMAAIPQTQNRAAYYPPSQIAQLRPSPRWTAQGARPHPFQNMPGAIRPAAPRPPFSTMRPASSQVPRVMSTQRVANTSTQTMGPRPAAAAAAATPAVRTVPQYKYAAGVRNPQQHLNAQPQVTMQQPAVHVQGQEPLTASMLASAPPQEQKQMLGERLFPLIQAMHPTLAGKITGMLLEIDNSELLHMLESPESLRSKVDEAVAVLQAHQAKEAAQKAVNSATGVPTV
Sequence of Genome polyprotein (P29990 2492-3391 limits assumed): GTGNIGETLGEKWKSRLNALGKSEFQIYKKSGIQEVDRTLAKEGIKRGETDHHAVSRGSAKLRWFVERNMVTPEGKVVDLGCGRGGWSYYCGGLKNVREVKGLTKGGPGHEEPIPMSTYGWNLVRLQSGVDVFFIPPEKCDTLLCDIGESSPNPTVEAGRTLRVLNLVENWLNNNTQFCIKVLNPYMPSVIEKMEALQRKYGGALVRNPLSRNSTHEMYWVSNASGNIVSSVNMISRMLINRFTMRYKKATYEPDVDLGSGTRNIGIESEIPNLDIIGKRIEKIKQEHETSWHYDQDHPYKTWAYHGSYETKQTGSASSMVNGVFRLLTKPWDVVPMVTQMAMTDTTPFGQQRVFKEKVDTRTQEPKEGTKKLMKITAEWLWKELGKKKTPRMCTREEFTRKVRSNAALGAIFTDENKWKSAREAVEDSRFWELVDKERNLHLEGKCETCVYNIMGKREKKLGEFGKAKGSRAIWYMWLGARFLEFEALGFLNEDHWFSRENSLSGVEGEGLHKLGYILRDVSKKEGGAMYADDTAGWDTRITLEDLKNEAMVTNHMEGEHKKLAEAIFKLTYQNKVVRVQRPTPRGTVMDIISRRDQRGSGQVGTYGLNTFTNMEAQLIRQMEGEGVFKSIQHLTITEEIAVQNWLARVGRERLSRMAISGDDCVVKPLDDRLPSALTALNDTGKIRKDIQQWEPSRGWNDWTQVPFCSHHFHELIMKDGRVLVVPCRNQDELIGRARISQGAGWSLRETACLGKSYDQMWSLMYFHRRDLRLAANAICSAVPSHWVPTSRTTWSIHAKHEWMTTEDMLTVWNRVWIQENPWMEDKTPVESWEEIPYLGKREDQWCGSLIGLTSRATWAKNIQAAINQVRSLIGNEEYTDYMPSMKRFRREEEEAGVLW
Sequence of SUMO E1/E2 (Q9UBE0 whole entry): as the sequence (Q9UBE0 whole entry) above
Sequence of SUMO E1/E2 (Q9UBT2 whole entry): as the sequence (Q9UBT2 whole entry) above
Sequence of SUMO E1/E2 (P63279 whole entry): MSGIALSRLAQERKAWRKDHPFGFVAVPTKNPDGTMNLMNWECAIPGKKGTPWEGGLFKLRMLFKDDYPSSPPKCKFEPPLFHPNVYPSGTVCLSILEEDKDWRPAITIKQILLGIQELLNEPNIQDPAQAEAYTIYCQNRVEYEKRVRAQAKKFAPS
Sequence of Nonstructural protein 1 (Q194T2 whole entry): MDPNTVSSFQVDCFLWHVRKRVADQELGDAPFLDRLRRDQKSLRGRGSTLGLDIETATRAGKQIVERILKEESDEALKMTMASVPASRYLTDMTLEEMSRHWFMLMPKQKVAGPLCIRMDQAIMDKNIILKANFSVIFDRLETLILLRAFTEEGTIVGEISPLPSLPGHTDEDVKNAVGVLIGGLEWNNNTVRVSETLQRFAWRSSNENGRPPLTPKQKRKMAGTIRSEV

CCCCn1c(NC(=O)c2ccc(Br)o2)c(S(=O)(=O)c2ccccc2)c2nc3ccccc3nc21
active: IC50 [1] 2.8 µM | IC50 [2] 10.6 µM | IC50 [3] 20.3 µM | CC50 [4] > 40 µM | IC50 [6] 75.4 µM | AC50 [7] 7.79 µM
inconclusive: EC50 [5] 108 µM

Cc1cnc(C=NNC(N)=S)c2cccc(N)c12
active: IC50 [9] 2.39 µM | CC50 [4] 4.93 µM | IC50 [12] 8.74 µM | IC50 [13] 2.83 µM
inactive: IC50 [8] 32.1 µM | IC50 [10] > 66 µM | IC50 [11] > 66 µM

O=C(NCCN1CCC2(CC1)C(=O)NCN2c1ccccc1)c1cc2cc(F)ccc2[nH]1
active: IC50 [14] 0.1 µM | IC50 [15] 0.07 µM

C[C@@H](CN1CCC(n2c(=O)[nH]c3cc(Br)ccc32)CC1)NC(=O)c1ccc(F)cc1
active: IC50 [14] 0.004 µM | IC50 [15] 0.34 µM
